Structures can show the parent of a compound that is named as a salt.

For orientation: melting point means the temperature, or range, at which the solid turns liquid. For `CC(=O)N1CCN(C[C@H](C)NC(=O)c2cc3c(-c4ccccc4)nn(C)c3s2)CC1` (as salt: salt) [compound 94, (S)-1-methyl-3-phenyl-1H-thieno[2,3-c]pyrazole-5-carboxylic acid [2-(4-acetyl-piperazin-1-yl)-1-methyl-ethyl]-amide], the melting point lay within 133.5 to 140.1 °C. As for `CC(=O)N1CCN(C[C@@H](C)NC(=O)c2cc3c(-c4ccccc4)nn(C)c3s2)CC1` (as salt: salt) [compound 93, (R)-1-methyl-3-phenyl-1H-thieno[2,3-c]pyrazole-5-carboxylic acid [2-(4-acetyl-piperazin-1-yl)-1-methyl-ethyl]-amide], the figure is 133.9 to 139.9 °C.

Values taken from US7491821B2, “Inhibitors of P2X3” (Roche Palo Alto LLC, priority 2005, dated 2009).
